Measurements as given in US20250236627A1, “CERTAIN OCTAHYDROFURO[3,4- B]PYRAZINES AS GLP-1 RECEPTOR MODULATORS” (ASTRAZENECA AB, priority 2021, published 2025).
pEC50, pIC50: −log10 of the molar value.

Columns and labels:
human GLP-1R receptor = biological target: T1, human GLP-1R receptor (Homo sapiens, UniProt P43220, L260F); assay: CHOK1 GLP-1R cAMP Assay; format: cell-based; settings: CHO-K1 cell line stably expressing human GLP-1R; HTRF cAMP detection
T1 construct: expressed in transfected cells; host or cells: CHO-K1 (ATCC CCL-61)
T1 sequence (P43220 24-463 L260F): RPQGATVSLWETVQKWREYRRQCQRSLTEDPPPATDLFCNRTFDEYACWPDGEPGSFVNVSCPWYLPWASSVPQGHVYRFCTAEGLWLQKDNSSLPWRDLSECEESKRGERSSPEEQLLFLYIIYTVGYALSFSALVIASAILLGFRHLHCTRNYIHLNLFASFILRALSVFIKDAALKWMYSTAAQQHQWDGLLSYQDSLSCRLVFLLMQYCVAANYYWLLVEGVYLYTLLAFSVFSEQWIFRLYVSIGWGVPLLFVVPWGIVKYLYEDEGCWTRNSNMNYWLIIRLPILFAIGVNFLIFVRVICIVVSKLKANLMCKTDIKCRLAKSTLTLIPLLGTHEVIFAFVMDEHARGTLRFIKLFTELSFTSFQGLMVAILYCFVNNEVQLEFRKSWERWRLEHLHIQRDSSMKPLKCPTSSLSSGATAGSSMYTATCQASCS
How it was run: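 CHO-K1 cells, 800/well, stimulated 20 min at room temperature with compound in HEPES pH 7.4/HBSS/0.1% BSA plus IBMX (1 mM in the added buffer). cAMP measured by HTRF competitive immunoassay after ≥1 h, converted to pM via standard curve. EC50 from 4-parameter logistic fit; % effect relative to saturating GLP1(7-36)NH2.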

[1] = biological target: T2, endogenous human glucagon-like peptide 1 receptor (GLP-1R) (Homo sapiens, UniProt P43220); assay: EndoC cAMP Accumulation Assay; format: cell-based; settings: EndoC-βH1 human pancreatic β cell line; HTRF cAMP assay
T2 construct: endogenous human glucagon-like peptide 1 receptor (GLP-1R) in a pancreatic insulinoma cell line; host or cells: EndoC-βH1 human pancreatic β cell line
T2 sequence (P43220 24-463): as the sequence (P43220 24-463 L260F) above, with F237L counted along it
How it was run: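 Thawed EndoC-βH1 cells (3000 per well) were stimulated for 30 min at room temperature in HBSS/25 mM HEPES pH 7.4, 0.1% BSA and 0.5 mM IBMX. cAMP was measured by HTRF competitive immunoassay after 1 h. Responses were fitted by 4-parameter logistic as % activation relative to maximal GIP (82.5 nM), with basal cAMP as zero.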

[2] = biological target: T3, human phosphodiesterase-3A (Homo sapiens, UniProt Q14432); assay: PDE3 Assay; format: biochemical; settings: human recombinant enzyme expressed in Sf9 cells; formation of 5′AMP from cAMP
T3 construct: host or cells: Sf9 cells
T3 sequence (Q14432 whole entry): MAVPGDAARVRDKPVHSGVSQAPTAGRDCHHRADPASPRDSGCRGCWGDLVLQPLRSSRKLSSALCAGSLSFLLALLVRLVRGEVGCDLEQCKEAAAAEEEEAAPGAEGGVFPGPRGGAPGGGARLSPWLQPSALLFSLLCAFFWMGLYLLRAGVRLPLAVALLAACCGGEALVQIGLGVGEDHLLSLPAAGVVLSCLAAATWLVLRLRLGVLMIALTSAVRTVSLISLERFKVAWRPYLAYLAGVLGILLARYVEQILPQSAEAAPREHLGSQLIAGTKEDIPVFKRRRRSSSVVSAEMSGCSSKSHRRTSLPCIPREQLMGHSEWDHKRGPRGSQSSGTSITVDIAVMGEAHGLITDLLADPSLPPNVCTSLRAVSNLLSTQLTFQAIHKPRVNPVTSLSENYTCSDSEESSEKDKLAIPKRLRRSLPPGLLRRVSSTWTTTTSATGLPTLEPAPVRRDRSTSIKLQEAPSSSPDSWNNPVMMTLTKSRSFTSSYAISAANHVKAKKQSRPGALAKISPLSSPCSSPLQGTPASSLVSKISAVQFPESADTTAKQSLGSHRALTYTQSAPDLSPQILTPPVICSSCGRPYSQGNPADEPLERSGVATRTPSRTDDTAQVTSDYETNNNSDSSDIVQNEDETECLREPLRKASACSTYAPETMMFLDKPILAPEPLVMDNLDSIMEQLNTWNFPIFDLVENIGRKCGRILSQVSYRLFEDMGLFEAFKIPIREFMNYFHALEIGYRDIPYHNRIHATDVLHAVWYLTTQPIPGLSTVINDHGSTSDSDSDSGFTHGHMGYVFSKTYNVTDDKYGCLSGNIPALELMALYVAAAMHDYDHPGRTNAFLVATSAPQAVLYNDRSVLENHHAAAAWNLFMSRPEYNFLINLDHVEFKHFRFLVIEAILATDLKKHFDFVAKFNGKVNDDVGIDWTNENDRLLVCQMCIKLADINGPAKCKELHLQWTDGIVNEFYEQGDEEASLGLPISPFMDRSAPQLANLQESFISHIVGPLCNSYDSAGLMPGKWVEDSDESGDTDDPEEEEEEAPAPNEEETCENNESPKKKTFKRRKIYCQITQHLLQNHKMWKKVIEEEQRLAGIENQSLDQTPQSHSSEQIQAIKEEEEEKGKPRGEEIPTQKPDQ
Procedure: Evaluation of the effects of compounds on the activity of the human phosphodiesterase-3A is quantified by measuring the formation of 5′AMP from cAMP using a human recombinant enzyme expressed in Sf9 cells.
The test compound, reference compound or water (control) are added to a buffer containing 40 mM Tris/HCl (pH 7.4) and 8 mM MgCl2, 450 nM cAMP and 0.25 μCi [^3H]cAMP.
Thereafter, the reaction is initiated by addition of the enzyme (about 1 U) and the mixture is incubated for 20 min at 22° C.
For basal control measurements, the enzyme is omitted from the reaction mixture.
Following incubation SPA beads are added. After 30 min at 22° C. under shaking, the amount of [^3H]5′AMP is quantified with a scintillation counter (Topcount, Packard).
The results are expressed as a percent inhibition of the control enzyme activity. The standard inhibitory reference compound is milrinone (CAS number 78415-72-2), which is tested in each experiment at several concentrations to obtain an inhibition curve from which its IC50 value is calculated.

SMILES: C[C@]1(c2ccc(Cl)cc2F)Oc2cccc(N3CCN(Cc4nc5ccc(C(=O)O)cc5n4C[C@@H]4CCO4)[C@H]4COC[C@H]43)c2O1 (single isomer, unassigned) [Example 6a, 2-(((4aR*,7aS*)-4-((R*)-2-(4-Chloro-2-fluorophenyl)-2-methylbenzo[d][1,3]dioxol-4-yl)hexahydrofuro[3,4-b]pyrazin-1(2H)-yl)methyl)-1-(((S)-oxetan-2-yl)methyl)-1H-benzo[d]imidazole-6-carboxylic acid]
- pEC50 (human GLP-1R receptor): 8.82
- pEC50 [1]: 9.04
- pIC50 [2]: < 4.00

SMILES: C[C@]1(c2ccc(Cl)cn2)Oc2cccc(N3CCN(Cc4nc5ccc(C(=O)O)cc5n4C[C@@H]4CCCO4)[C@H]4COC[C@H]43)c2O1 (single isomer, unassigned) [Example 8a, 2-(((4aR*,7aS*)-4-((R*)-2-(5-Chloropyridin-2-yl)-2-methylbenzo[d][1,3]dioxol-4-yl)hexahydrofuro[3,4-b]pyrazin-1(2H)-yl)methyl)-1-(((S)-tetrahydrofuran-2-yl)methyl)-1H-benzo[d]imidazole-6-carboxylic acid]
- pEC50 (human GLP-1R receptor): 7.82
- pEC50 [1]: 7.77
- pIC50 [2]: < 4.00

SMILES: C[C@]1(c2ccc(Cl)cn2)Oc2cccc(N3CCN(Cc4nc5c(F)cc(C(=O)O)cc5n4C[C@@H]4CCO4)[C@H]4COC[C@H]43)c2O1 (single isomer, unassigned) [Example 9a, 2-(((4aR*,7aS*)-4-((R*)-2-(5-Chloropyridin-2-yl)-2-methylbenzo[d][1,3]dioxol-4-yl)hexahydrofuro[3,4-b]pyrazin-1(2H)-yl)methyl)-4-fluoro-1-(((S)-oxetan-2-yl)methyl)-1H-benzo[d]imidazole-6-carboxylic acid]
- pEC50 (human GLP-1R receptor): 8.82
- pEC50 [1]: 8.41
- pIC50 [2]: < 4.00

SMILES: C[C@]1(c2ccc(Cl)cn2)Oc2cccc(N3CCN(Cc4nc5c(F)cc(C(=O)O)cc5n4C[C@@H]4CCO4)[C@H]4COC[C@H]43)c2O1 (single isomer, unassigned) [Example 9d, 2-(((4aR*,7aS*)-4-((R*)-2-(5-Chloropyridin-2-yl)-2-methylbenzo[d][1,3]dioxol-4-yl)hexahydrofuro[3,4-b]pyrazin-1(2H)-yl)methyl)-4-fluoro-1-(((S)-oxetan-2-yl)methyl)-1H-benzo[d]imidazole-6-carboxylic acid]
- pEC50 (human GLP-1R receptor): 6.49
- pEC50 [1]: 5.68
- pIC50 [2]: < 4.00

SMILES: C[C@]1(c2ccc(Cl)cn2)Oc2cccc(N3CCN(Cc4nc5c(F)cc(C(=O)O)cc5n4CC4(CC#N)CC4)[C@H]4COC[C@H]43)c2O1 (single isomer, unassigned) [Example 21]
- pEC50 (human GLP-1R receptor): 8.52
- pEC50 [1]: 8.52
- pIC50 [2]: < 4.00

SMILES: C[C@]1(c2ccc(Cl)cn2)Oc2cccc(N3CCN(Cc4nc5c(F)cc(C(=O)O)cc5n4CC4(C#N)CC4)[C@H]4COC[C@H]43)c2O1 (single isomer, unassigned) [Example 22a]
- pEC50 (human GLP-1R receptor): 8.57
- pEC50 [1]: 8.49
- pIC50 [2]: < 4.00

SMILES: C[C@]1(c2ccc(Cl)cn2)Oc2cccc(N3CCN(Cc4nc5c(Cl)cc(C(=O)O)cc5n4CC4(C#N)CC4)[C@H]4COC[C@H]43)c2O1 (single isomer, unassigned) [Example 23a]
- pEC50 (human GLP-1R receptor): 8.74
- pEC50 [1]: 8.30
- pIC50 [2]: < 4.00

SMILES: C[C@]1(c2ccc(Cl)cn2)Oc2cccc(N3CCN(Cc4nc5ccc(C(=O)O)cc5n4CC4(CC#N)CC4)[C@H]4COC[C@H]43)c2O1 (single isomer, unassigned) [Example 25]
- pEC50 (human GLP-1R receptor): 8.29
- pEC50 [1]: 8.10
- pIC50 [2]: < 4.00
